Test results: the supplement of paper PMC10307832

How the values were obtained:
Assay in all cases: relative viability (nuclei count vs DMSO), 5 days (fraction); higher = more cells survive
HCC-15 = test system: HCC-15
In short: (§1)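 The day after seeding in 1536-well plates, lung cancer cell lines were treated by pin tool with a single drug, or with a fixed anchor-drug dose together with five library-drug doses (not always all listed) in √10 steps. After 5 days, a combined fix-and-stain solution (final 0.05% Triton X-100, 1% formaldehyde, 1 ug/ml Hoechst) was added. Nuclei counted on 4× images gave relative viability as treated counts over vehicle counts, reported as the median of duplicate plates.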

HCC-827 = test system: HCC-827
In short: as §1

COR-L 105 = test system: COR-L 105
In short: as §1

HCC-44 = test system: HCC-44
In short: as §1

EPLC-272H = test system: EPLC-272H
In short: as §1

NCI-H522 = test system: NCI-H522
In short: as §1

SK-MES-1 = test system: SK-MES-1
In short: as §1

HCC-78 = test system: HCC-78
In short: as §1

NCI-H1648 = test system: NCI-H1648
In short: as §1

NCI-H2009 = test system: NCI-H2009
In short: as §1

NCI-H596 = test system: NCI-H596
In short: as §1

RERF-LC-KJ = test system: RERF-LC-KJ
In short: as §1

NCI-H661 = test system: NCI-H661
In short: as §1

SW 1573 = test system: SW 1573
In short: as §1

NCI-H650 = test system: NCI-H650
In short: as §1

LCLC-97TM1 = test system: LCLC-97TM1
In short: as §1

NCI-H1395 = test system: NCI-H1395
In short: as §1

NCI-H1792 = test system: NCI-H1792
In short: as §1

NCI-H647 = test system: NCI-H647
In short: as §1

HCC-366 = test system: HCC-366
In short: as §1

NCI-H1993 = test system: NCI-H1993
In short: as §1

NCI-H358 = test system: NCI-H358
In short: as §1

Oc1nc(-c2ccc(C(F)(F)F)cc2)nc2c1CSCC2 [XAV939] + CC(=O)Nc1cccc(-n2c(=O)n(C3CC3)c(=O)c3c(Nc4ccc(I)cc4F)n(C)c(=O)c(C)c32)c1 [Trametinib] (partner 0.02 µM)
relative viability (HCC-15; first compound 0.08 µM): 0.416
relative viability (HCC-15; first compound 0.253 µM): 0.342
relative viability (HCC-15; first compound 0.8 µM): 0.376
relative viability (HCC-15; first compound 2.53 µM): 0.304
relative viability (HCC-827; first compound 0.08 µM): 0.592
relative viability (HCC-827; first compound 0.253 µM): 0.504
relative viability (HCC-827; first compound 0.8 µM): 0.642
relative viability (HCC-827; first compound 2.53 µM): 0.514
relative viability (COR-L 105; first compound 0.08 µM): 0.43
relative viability (COR-L 105; first compound 0.253 µM): 0.433
relative viability (COR-L 105; first compound 0.8 µM): 0.4
relative viability (COR-L 105; first compound 2.53 µM): 0.414
relative viability (HCC-44; first compound 0.08 µM): 1.04
relative viability (HCC-44; first compound 0.253 µM): 0.843
relative viability (HCC-44; first compound 0.8 µM): 0.927
relative viability (HCC-44; first compound 2.53 µM): 0.924
relative viability (EPLC-272H; first compound 0.08 µM): 0.29
relative viability (EPLC-272H; first compound 0.253 µM): 0.251
relative viability (EPLC-272H; first compound 0.8 µM): 0.274
relative viability (EPLC-272H; first compound 2.53 µM): 0.23
relative viability (NCI-H522; first compound 0.08 µM): 0.88
relative viability (NCI-H522; first compound 0.253 µM): 0.713
relative viability (NCI-H522; first compound 0.8 µM): 0.888
relative viability (NCI-H522; first compound 2.53 µM): 0.725
relative viability (SK-MES-1; first compound 0.08 µM): 0.554
relative viability (SK-MES-1; first compound 0.253 µM): 0.5
relative viability (SK-MES-1; first compound 0.8 µM): 0.489
relative viability (SK-MES-1; first compound 2.53 µM): 0.459
relative viability (HCC-78; first compound 0.08 µM): 0.827
relative viability (HCC-78; first compound 0.253 µM): 0.642
relative viability (HCC-78; first compound 0.8 µM): 0.842
relative viability (HCC-78; first compound 2.53 µM): 0.535
relative viability (NCI-H1648; first compound 0.253 µM): 0.438
relative viability (NCI-H1648; first compound 0.8 µM): 0.606
relative viability (NCI-H1648; first compound 2.53 µM): 0.361
relative viability (NCI-H2009; first compound 0.08 µM): 0.287
relative viability (NCI-H2009; first compound 0.253 µM): 0.281
relative viability (NCI-H2009; first compound 0.8 µM): 0.19
relative viability (NCI-H2009; first compound 2.53 µM): 0.217
relative viability (NCI-H596; first compound 0.08 µM): 0.974
relative viability (NCI-H596; first compound 0.253 µM): 0.775
relative viability (NCI-H596; first compound 0.8 µM): 0.75
relative viability (NCI-H596; first compound 2.53 µM): 0.657
relative viability (RERF-LC-KJ; first compound 0.08 µM): 0.859
relative viability (RERF-LC-KJ; first compound 0.253 µM): 0.733
relative viability (RERF-LC-KJ; first compound 0.8 µM): 0.768
relative viability (RERF-LC-KJ; first compound 2.53 µM): 0.603
relative viability (NCI-H661; first compound 0.08 µM): 0.617
relative viability (NCI-H661; first compound 0.253 µM): 0.538
relative viability (NCI-H661; first compound 0.8 µM): 0.543
relative viability (NCI-H661; first compound 2.53 µM): 0.568
relative viability (SW 1573; first compound 0.08 µM): 0.63
relative viability (SW 1573; first compound 0.253 µM): 0.545
relative viability (SW 1573; first compound 0.8 µM): 0.608
relative viability (SW 1573; first compound 2.53 µM): 0.425
relative viability (NCI-H650; first compound 0.08 µM): 1.08
relative viability (NCI-H650; first compound 0.253 µM): 1.05
relative viability (NCI-H650; first compound 0.8 µM): 1
relative viability (NCI-H650; first compound 2.53 µM): 0.92
relative viability (LCLC-97TM1; first compound 0.08 µM): 0.213
relative viability (LCLC-97TM1; first compound 0.253 µM): 0.199
relative viability (LCLC-97TM1; first compound 2.53 µM): 0.161
relative viability (NCI-H1395; first compound 0.08 µM): 1.02
relative viability (NCI-H1395; first compound 0.253 µM): 0.974
relative viability (NCI-H1395; first compound 0.8 µM): 1.11
relative viability (NCI-H1395; first compound 2.53 µM): 0.944
relative viability (NCI-H1792; first compound 0.08 µM): 0.492
relative viability (NCI-H1792; first compound 0.253 µM): 0.473
relative viability (NCI-H1792; first compound 0.8 µM): 0.448
relative viability (NCI-H1792; first compound 2.53 µM): 0.391
relative viability (NCI-H647; first compound 0.08 µM): 0.446
relative viability (NCI-H647; first compound 0.253 µM): 0.433
relative viability (NCI-H647; first compound 0.8 µM): 0.386
relative viability (NCI-H647; first compound 2.53 µM): 0.372
relative viability (HCC-366; first compound 0.08 µM): 0.307
relative viability (HCC-366; first compound 0.253 µM): 0.28
relative viability (HCC-366; first compound 0.8 µM): 0.327
relative viability (HCC-366; first compound 2.53 µM): 0.259
relative viability (NCI-H1993; first compound 0.08 µM): 0.541
relative viability (NCI-H1993; first compound 0.253 µM): 0.488
relative viability (NCI-H1993; first compound 0.8 µM): 0.411
relative viability (NCI-H1993; first compound 2.53 µM): 0.449
relative viability (NCI-H358; first compound 0.08 µM): 0.139
relative viability (NCI-H358; first compound 0.253 µM): 0.134
relative viability (NCI-H358; first compound 0.8 µM): 0.122
relative viability (NCI-H358; first compound 2.53 µM): 0.108
